What was measured:
Experiment in all cases: relative viability (nuclei count vs DMSO), 5 days (fraction); higher = more cells survive
[1] = compound: CCC1=CN=CN=C1N2CCN(CC2)CC3=NC4=C(N3)C=C(C=C4)C(F)(F)F + COc1cc2c(Oc3ccc(NC(=O)C4(C(=O)Nc5ccc(F)cc5)CC4)cc3F)ccnc2cc1OCCCN1CCOCC1 [Foretinib] (partner 0.25 µM)
Outline: (§1)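 Values are medians from duplicate plates. Each reflects relative viability, defined as the nuclei count of treated wells over that of vehicle wells. Lung cancer cell lines in 1536-well plates were pin-tool dosed one day after seeding with one drug alone or with a fixed anchor-drug dose plus five library-drug doses (not always all listed) in √10 steps, then fixed, stained and imaged at 4× after 5 days.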

[2] = compound: CCC1=CN=CN=C1N2CCN(CC2)CC3=NC4=C(N3)C=C(C=C4)C(F)(F)F + CS(=O)(=O)CCNCc1ccc(-c2ccc3ncnc(Nc4ccc(OCc5cccc(F)c5)c(Cl)c4)c3c2)o1 [Lapatinib] (partner 2 µM)
Outline: as §1

[3] = compound: CCn1c(-c2nonc2N)nc2cnc(Oc3cccc(NC(=O)c4ccc(OCCN5CCOCC5)cc4)c3)cc21 + Cc1cc(Nc2cc(N3CCN(C)CC3)nc(Sc3ccc(NC(=O)C4CC4)cc3)n2)n[nH]1 [Tozasertib] (partner 0.1 µM)
Outline: as §1

[4] = compound: CCn1c(-c2nonc2N)nc2cnc(Oc3cccc(NC(=O)c4ccc(OCCN5CCOCC5)cc4)c3)cc21 + Nc1ncn([C@H]2C[C@H](O)[C@@H](CO)O2)c(=O)n1 [Decitabine] (partner 2 µM)
Outline: as §1

Row | Cell Line | relative viability ([1]; first compound 0.04 µM) | relative viability ([1]; first compound 0.1265 µM) | relative viability ([1]; first compound 0.4 µM) | relative viability ([1]; first compound 1.265 µM) | relative viability ([1]; first compound 4 µM) | relative viability ([2]; first compound 0.04 µM) | relative viability ([2]; first compound 0.1265 µM) | relative viability ([2]; first compound 0.4 µM) | relative viability ([2]; first compound 1.265 µM) | relative viability ([2]; first compound 4 µM) | relative viability ([3]; first compound 0.04 µM) | relative viability ([3]; first compound 1.265 µM) | relative viability ([3]; first compound 4 µM) | relative viability ([4]; first compound 0.04 µM) | relative viability ([4]; first compound 0.1265 µM) | relative viability ([4]; first compound 1.265 µM) | relative viability ([4]; first compound 4 µM) | relative viability ([3]; first compound 0.1265 µM) | relative viability ([3]; first compound 0.4 µM) | relative viability ([4]; first compound 0.4 µM)
1 | HCC-78 | 0.585 | 0.631 | 0.491 | 0.51 | 0.539 | 0.458 | 0.363 | 0.726 | 0.548 | 0.463 | 0.589 | 0.532 | 0.519 | 0.613 | 0.78 | 0.74 | 0.634 |  |  | 
2 | HCC-366 | 0.856 | 1.01 | 0.915 | 0.877 | 0.851 | 1.01 | 1.05 | 0.988 |  | 1.13 | 0.134 | 0.0938 | 0.0791 | 0.342 | 0.338 | 0.108 | 0.0747 | 0.105 | 0.0696 | 0.482
3 | HCC-827 | 0.962 | 0.945 | 1.02 |  | 0.826 | 0.201 | 0.182 | 0.184 | 0.165 | 0.178 | 0.453 | 0.383 | 0.346 | 0.343 | 0.397 | 0.305 | 0.318 | 0.434 | 0.387 | 0.328
4 | HOP-62 | 1.14 | 1.12 | 1.07 | 1.25 | 0.942 | 1.14 | 1.06 | 0.979 | 0.971 | 1.07 | 0.393 | 0.283 | 0.234 | 0.226 | 0.215 | 0.211 | 0.202 | 0.445 | 0.344 | 0.23
5 | IA-LM | 1.11 | 0.943 | 1.02 | 1.1 | 1.22 | 0.85 | 0.781 | 0.736 | 0.923 | 0.893 |  |  |  |  |  |  |  |  |  | 
6 | LC-2-ad | 0.927 | 0.88 | 0.922 | 0.803 | 0.857 | 1.07 | 0.898 | 0.899 | 0.945 | 0.925 | 0.517 | 0.294 | 0.328 | 0.769 | 0.755 | 0.642 | 0.615 | 0.365 | 0.418 | 0.818
7 | LCLC-97TM1 | 0.897 | 0.898 | 0.895 | 0.838 | 0.888 | 1.02 | 0.697 | 0.828 | 0.877 | 0.8 | 0.201 | 0.249 | 0.222 | 0.258 | 0.235 | 0.232 | 0.258 | 0.271 | 0.192 | 
8 | LCLC-103H | 0.917 | 0.852 | 0.757 | 0.644 | 0.688 |  |  |  |  |  | 0.508 | 0.465 | 0.419 | 0.647 | 0.686 | 0.664 | 0.723 | 0.463 | 0.534 | 0.704
9 | LK-2 | 1.29 | 1.41 | 1.09 | 1.12 | 0.743 | 0.947 | 0.797 | 0.838 | 0.498 | 0.985 | 0.198 | 0.179 | 0.171 | 0.382 | 0.385 | 0.183 | 0.29 | 0.159 | 0.173 | 0.191
10 | LOU-NH91 | 0.863 | 0.984 | 0.909 | 0.966 | 0.92 | 0.761 | 0.794 | 0.77 | 0.644 | 0.844 | 0.631 | 0.353 | 0.369 | 0.794 | 0.698 | 0.561 | 0.533 | 0.518 | 0.45 | 0.65
11 | LU99A | 0.744 | 0.751 | 0.771 | 0.804 | 0.87 | 0.964 | 0.989 | 0.95 | 0.926 | 0.948 | 0.293 | 0.233 | 0.199 | 1.03 | 0.994 | 1.02 | 0.844 | 0.295 | 0.295 | 0.929
12 | NCI-H441 | 0.96 | 1.07 | 0.938 | 0.884 | 0.993 |  |  |  |  |  | 0.834 | 0.344 | 0.354 | 0.307 | 0.183 | 0.265 | 0.261 | 0.546 |  | 0.227
13 | NCI-H522 |  |  |  |  |  |  |  |  |  |  | 0.474 | 0.509 | 0.482 | 0.672 | 0.819 | 0.648 | 0.621 | 0.478 | 0.544 | 0.698
14 | NCI-H1299 | 1.1 | 1.02 | 1.12 | 1.11 | 1.08 | 0.977 | 0.985 | 0.96 | 0.948 | 0.955 |  |  |  |  |  |  |  |  |  | 
15 | NCI-H1563 | 0.961 | 1.01 | 0.938 | 0.844 | 0.917 | 0.903 | 0.908 | 0.984 | 0.715 | 1.36 |  |  |  |  |  |  |  |  |  | 
16 | NCI-H1623 | 0.835 | 0.819 | 0.767 | 0.749 | 0.794 |  |  |  |  |  | 0.473 | 0.346 | 0.457 |  |  |  |  | 0.396 | 0.369 | 
17 | NCI-H1648 |  |  |  |  |  |  |  |  |  |  | 0.415 | 0.713 | 0.547 | 0.55 | 0.65 | 0.695 | 0.675 | 0.833 | 0.88 | 0.85
18 | NCI-H1703 | 0.344 | 0.366 | 0.369 | 0.381 | 0.372 | 0.966 | 0.819 | 0.921 | 0.804 | 0.923 |  |  |  |  |  |  |  |  |  | 
19 | NCI-H1792 |  |  |  |  |  | 0.769 | 0.808 | 0.851 | 0.978 | 0.884 |  |  |  | 0.45 | 0.637 | 0.433 | 0.372 |  |  | 0.461
20 | NCI-H2228 | 1.09 | 0.848 | 0.647 | 0.746 | 0.801 | 0.949 | 1.11 | 0.79 | 1.14 | 1.06 | 0.297 | 0.208 | 0.166 |  |  |  |  | 0.28 | 0.247 | 
21 | NCI-H2342 | 1.16 | 0.95 | 0.945 | 0.528 | 0.607 |  |  |  |  |  | 0.599 | 0.437 | 0.425 | 0.664 | 0.755 | 0.579 | 0.687 | 0.561 | 0.463 | 0.814
22 | SW 900 | 0.778 | 0.825 | 0.81 | 0.795 | 0.793 |  |  |  |  |  | 0.625 | 0.488 | 0.431 | 0.412 | 0.453 | 0.442 | 0.456 | 0.706 | 0.637 | 0.42
